Series [1] has as its target hERG channel (Homo sapiens, UniProt Q12809). The series is described as follows: hERG current blocking test (whole-cell patch clamp).
Series [2] has as its system Jeko-1. The series is described as follows: In vitro tumor cell proliferation (CellTiter-Glo), Jeko-1. Conditions: Homo sapiens, JeKo-1, 72 h; read-out: Growth IC50. The class given is cell-based. Here is the method:
(§1) Biological Embodiment 8: Study on Effects of Active Compounds for Inhibiting In Vitro Tumor Cell Proliferation
(§2) Promega CellTiter-Glo cell activity detection kit by luminescence (Promega-G7573).
(§3) Tumor cell lines were cultured in a 5% of CO2 incubator at 37° C. according to respective culture conditions; and periodic passage was performed, and cells positioned in a logarithmic phase were taken for planking.
(§4) 3) 90 μL of cell suspension was added into each well of the culture plate, and a culture solution containing no cell was added into blank control;
(§5) 4) the culture plate was cultured overnight in the 5% of CO2 incubator having relative humidity of 100% at 37° C.
(§6) Preparation of a 400× compound storage plate: the compound was diluted from the maximum concentration gradient to the lowest concentration with DMSO. […]
(§7) The following steps were performed according to the specification of the Promega CellTiter-Glo cell activity detection kit by luminescence (Promega-G7573). […]
(§8) 9) the luminescence signal was detected on the 2104 EnVision plate reader.

Series [3] has as its system OCI-LY3. The series is described as follows: In vitro tumor cell proliferation (CellTiter-Glo), OCI-LY3. Conditions: Homo sapiens, OCI-Ly3, 72 h; read-out: Growth IC50. The class given is cell-based. How it is done:
as §1, §2, §3, §4, §5, §6, §7, §8

Series [4] concerns the target Btk (Homo sapiens, UniProt Q06187). The series is described as follows: Determination of Btk enzyme inhibitory activity. The class given is biochemical. The note with it: 2 nM BTK. Here is the method:
Determination of Btk Enzyme Inhibitory Activity
Buffer solution: 50 mM Hepes pH 7.0, 0.1 mM Orthovanadate, 5 mM MgCl2, 0.01% of BSA;
1 mM TK-peptide, […], 50 nM SEB;
Pre-incubation for 15 minutes;
Reaction at 23° C. for 90 minutes;
Color Development Reaction:
Developing buffer solution: 50 mM Hepes pH8.0, 0.8 M KF, 20 mM EDTA, 0.01% BSA;
Reaction at 23° C. for 60 minutes;

Series [5] is described as follows: Rat liver microsome stability test. The class given is in vitro ADME. How it is done: Preparation of Buffer Solution:
1. 100 mM potassium phosphate buffer solution, pH of 7.4
Preparation of Test Compound Solution:
1. A test compound solution (10 mM, 5 μL) was diluted with a methanol solution (495 μL), and a 100 μM solution was prepared;
2. Preparation of a working solution: the above solution (50 μL) was diluted with the potassium phosphate buffer solution (450 μL, 100 mM) so as to obtain diluents (10 μM).
NADPH Regeneration System (Final Concentration 1 Unit/mL of Isocitrate Dehydrogenase):
1. beta-NADP, supplier: sigma Cat. No. N0505
3. isocitrate dehydrogenase, supplier: sigma Cat. No. 12002
Cold acetonitrile containing 100 ng/mL of tolbutamide and 100 ng/mL of labetalol serves as an internal standard
1. a 10 μL/well of working solution was added into plates (T0, T5, T10, T20, T30, T60, NCF60) beyond the blank;
2. a 80 μL/well of microsome solution was added, and incubation was performed at 37° C. for 10 min;
3. a 10 μL of 100 mM phosphate buffer solution was added into each well of an NCF60 plate, the plate was placed in a warm bath at 37° C., and timing started;
4. a 10 μL/well of NADPH regeneration system was added after preheating, and a reaction started;
5. incubation was performed at 37° C., and timing started
6. a 300 μL/well of stop solution was added (4° C., containing 100 ng/mL of tolbutamide and 100 ng/mL of labetalol) to end the reaction;
7. the plate was shaken for 10 min;
8. centrifugation was performed at 4° C. at a rotation speed of 4000 rpm; and
9. sample LC/MS/MS detection was performed.
Data Analysis Use Equation of First Order Kinetics to Calculate t½ and Clint(Mic): […]
equation of first order kinetics: […]

Series [6] deals with TMD8. The series is described as follows: In vitro tumor cell proliferation (CellTiter-Glo), TMD8. The class given is cell-based. Conditions: Homo sapiens, TMD8, 72 h; read-out: Growth IC50. How it is done: as §1, §2, §3, §4, §5, §6, §7, §8

Chain of Btk (Q06187 whole entry): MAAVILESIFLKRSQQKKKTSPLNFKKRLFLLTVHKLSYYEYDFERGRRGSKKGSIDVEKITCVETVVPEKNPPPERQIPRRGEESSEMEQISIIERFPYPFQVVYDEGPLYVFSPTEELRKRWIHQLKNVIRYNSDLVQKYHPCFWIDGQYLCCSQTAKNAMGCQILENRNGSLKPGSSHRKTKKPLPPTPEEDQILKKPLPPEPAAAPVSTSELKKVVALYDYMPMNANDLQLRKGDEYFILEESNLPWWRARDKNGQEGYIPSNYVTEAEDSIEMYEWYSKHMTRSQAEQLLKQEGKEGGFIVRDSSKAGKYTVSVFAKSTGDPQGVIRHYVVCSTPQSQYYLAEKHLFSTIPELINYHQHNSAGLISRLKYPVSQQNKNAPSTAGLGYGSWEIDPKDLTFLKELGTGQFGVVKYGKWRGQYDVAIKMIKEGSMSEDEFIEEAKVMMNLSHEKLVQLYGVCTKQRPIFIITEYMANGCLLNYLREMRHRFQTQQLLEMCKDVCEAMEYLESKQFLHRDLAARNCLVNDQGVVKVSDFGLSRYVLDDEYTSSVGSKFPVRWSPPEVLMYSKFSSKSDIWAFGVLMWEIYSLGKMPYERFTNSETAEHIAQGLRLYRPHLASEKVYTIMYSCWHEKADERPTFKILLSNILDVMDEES
Chain of hERG channel (Q12809 whole entry): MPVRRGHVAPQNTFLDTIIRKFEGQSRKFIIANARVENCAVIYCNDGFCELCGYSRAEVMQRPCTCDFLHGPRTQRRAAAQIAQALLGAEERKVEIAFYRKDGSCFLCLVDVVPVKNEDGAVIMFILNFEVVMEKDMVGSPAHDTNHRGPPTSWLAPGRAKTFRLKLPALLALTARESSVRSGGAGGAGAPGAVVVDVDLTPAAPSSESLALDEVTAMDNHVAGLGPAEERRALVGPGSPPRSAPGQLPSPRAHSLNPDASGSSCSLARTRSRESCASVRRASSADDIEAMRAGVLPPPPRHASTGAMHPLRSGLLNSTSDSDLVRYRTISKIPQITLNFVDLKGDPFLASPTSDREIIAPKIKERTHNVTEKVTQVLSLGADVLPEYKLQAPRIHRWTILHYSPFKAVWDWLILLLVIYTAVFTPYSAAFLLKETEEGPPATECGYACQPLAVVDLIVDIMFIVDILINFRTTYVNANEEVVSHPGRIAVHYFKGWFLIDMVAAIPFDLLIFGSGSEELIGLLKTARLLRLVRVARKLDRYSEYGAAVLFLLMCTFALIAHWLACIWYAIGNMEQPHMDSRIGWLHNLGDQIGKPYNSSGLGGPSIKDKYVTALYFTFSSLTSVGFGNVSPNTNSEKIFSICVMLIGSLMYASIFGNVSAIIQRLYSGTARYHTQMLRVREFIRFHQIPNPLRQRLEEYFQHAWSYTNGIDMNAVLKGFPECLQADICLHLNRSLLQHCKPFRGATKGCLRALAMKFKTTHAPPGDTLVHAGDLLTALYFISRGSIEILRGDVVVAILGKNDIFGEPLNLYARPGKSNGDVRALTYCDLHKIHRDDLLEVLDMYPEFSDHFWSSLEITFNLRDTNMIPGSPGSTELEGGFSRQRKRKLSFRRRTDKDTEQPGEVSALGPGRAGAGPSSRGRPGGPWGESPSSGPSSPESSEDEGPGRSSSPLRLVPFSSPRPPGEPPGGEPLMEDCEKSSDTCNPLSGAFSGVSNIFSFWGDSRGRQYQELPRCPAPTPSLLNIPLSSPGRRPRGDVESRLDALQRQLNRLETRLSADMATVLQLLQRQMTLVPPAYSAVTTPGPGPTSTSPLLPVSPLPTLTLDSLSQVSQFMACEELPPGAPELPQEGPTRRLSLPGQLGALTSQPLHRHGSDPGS

With `C=CC(=O)NN1CCCC(n2nc(-c3ccc(Oc4ccccc4)cc3)c3c(N)ncnc32)C1` (stereo not shown) [Embodiment 6, N-(3-(4-amino-3-(4-phenoxyphenyl)-1H-pyrazolo[3,4-D]pyrimidine-1-yl)-1-piperidyl)-acrylamide], the IC50 in series [1] was 8.06 µM; in series [2], over 10 µM; in series [3] it was over 10 µM; in series [4] it was 0.00027 µM; in series [6] it was 0.00085 µM. Further, the “Remaining (*NCF = 60 min)” value in series [5] (RLM 0.5, 60 min, no co-factor) worked out at 105.4%. Moreover, the “Remaining (T = 60 min)” value in series [5] (RLM 0.5, 60 min with NADPH regenerating system) was 1.1%. The half-life at 1 µM in series [5] (rat, liver microsomes, pH 7.4, RLM 0.5 (0.5 mg protein/mL)) amounted to 8.9 min. Further, in series [5] (rat, liver microsomes, pH 7.4, RLM 0.5, read-out: CLint(mic)), the microsomal CLint at 1 µM was 155 µL/min/mg. Moreover, the CLint scaled at 1 µM in series [5] (rat, liver microsomes, pH 7.4, RLM 0.5, scaled from CLint(mic)) came to 280 mL/min/kg.

Source of the values: patent US11512085B2, “Heteroaryl compound having drug activity” (SHANGHAI DUDE MEDICAL TECHNOLOGY CO., LTD, priority 2017, dated 2022).
